Measured values taken from PMC9697446 (International Journal of Molecular Sciences, 2022).
Where “and” joins values, the source holds several entries; their conditions need not be identical. Identical values can stand only once.

Tests used:
[1] = tested on: isolated rat liver mitochondria; experiment: Mitochondrial membrane potential and calcium-induced depolarization (safranine O); assay type: biochemical; settings: for ΔΨm, CI (g/m) / ΔΨm, CII (s/r): depolarization after 10-min incubation with 30 µM compound, mean ± SD; for ΔΨm, CI (g/m): complex I substrates (glutamate, malate); for ΔΨm, CII (s/r): complex II substrate (succinate) in the presence of rotenone
Description: The primary screening of new compounds to determine their effect on the mitochondrial membrane potential formed due to respiratory chain (RC) activity after additions of RC substrates was performed on isolated rat liver mitochondria. It can be used to estimate the probability of the potential toxicity of these compounds. Furthermore, the influence of the compounds on the calcium-dependent depolarization of isolated rat liver mitochondria in this assay made it possible to evaluate the effect on the mitochondrial permeability transition.
Rat liver mitochondria were isolated by conventional differential centrifugation from the livers of adult Wistar strain rats that fasted overnight, pH 7.6 [83, 84]. The mitochondrial protein concentration was determined using a biuret procedure with bovine serum albumin as the standard.
Safranine O (10 µM) was used as a membrane potential probe. Fluorescence intensity at 580 nm (excitation at 520 nm) was measured with a Wallac Victor 3 1420 Multilabel Counter (Perkin Elmer, Turku, Finland). The mitochondrial protein concentration was 0.2 mg/mL. The medium for measurements contained 75 mM sucrose, 225 mM mannitol, 10 mM K-HEPES (pH 7.4), 0.02 mM EGTA, and 1 mM KH2PO4. After a 5-min incubation, 5 mM glutamate/malate or 5 mM succinate in the presence of 0.5 µM rotenone were added to produce the mitochondrial potential. Then, the compounds (30 µM) or the same volume of the vehicle (DMSO) were injected into the mitochondrial suspension. After 15–20 min, 12.5 µM CaCl2 was added to each sample to induce the depolarization of mitochondria, and after 5 min, 0.5 µM CCCP was added for maximum depolarization of the mitochondria. The level of depolarization (ΔΨm) was calculated using the fluorescence value after 10-min incubation with 30 µM of compounds (or vehicle) normalized between the fluorescence measurements after substrate and CCCP addition, where fluorescence intensity at 580 nm was 100% after substrate addition and was 0% after CCCP addition.

porcine liver CES = experiment: CES inhibition (4-nitrophenyl acetate hydrolysis); assay type: biochemical; settings: ± SEM, n = 3;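 further: values are percent inhibition of CES activity not residual activity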
Description: The esterase profile was estimated using the human erythrocyteAChE, the equine serum BChE, and the porcine liver CES.
Human erythrocyte AChE, equine serum BChE, porcine liver CES, acetylthiocholine iodide (ATCh), butyrylthiocholine iodide (BTCh), 5,5′-dithio-bis-(2-nitrobenzoic acid) (DTNB), 4-nitrophenol acetate (4-NPA), and BNPP were purchased from Sigma-Aldrich (St. Louis, MO, USA).
The assay solution consisted of 0.1 M K/Na phosphate buffer pH 8.0, 25 °C, with the addition of 1 mM 4-nitrophenyl acetate and 0.02 unit/mL of CES. The assays were carried out with a blank containing all components, except CES.
The test compounds were dissolved in DMSO, and the incubation mixture contained 2% (v/v) of the solvent. Enzyme inhibition was first assessed at a single concentration of 20 µM for each compound after a 5 min incubation at 25 °C in three separate experiments. […] The test compounds were added to the assay solution and preincubated at 25 °C with the enzymes for 5 min, followed by the addition of substrate. A parallel control was made for the assay solution with no inhibitor. Measurements were performed with a FLUOStar Optima microplate reader (BMG Labtech, Ortenberg, Germany). Each experiment was performed in triplicate. The results were expressed as the mean ± SEM. The reaction rates in the presence and absence of the inhibitor were compared, and the percent of residual enzyme activity due to the presence of test compounds was calculated.

[2] = ABTS radical cation scavenging assay; settings: 1 h incubation, means ± SEM (n = 3); for IC50: 50% reduction of ABTS radical; for ABTS Scavenging Activity, TEAC Value: Trolox equivalent antioxidant capacity
Description: The ABTS assay is based on the direct binding of a model ABTS radical cation (2,2′-azino-bis-(3-ethylbenzothiazoline-6-sulfonate), ABTS^•+) by antioxidants. The measurements were performed as previously described in detail.
The radical scavenging activity was expressed as TEAC values (Trolox equivalent antioxidant capacity) and determined as the ratio between the slopes obtained from the linear correlation of the ABTS radical absorbance with the concentrations of the test compounds and Trolox.
The radical scavenging activity of the compounds was assessed using an ABTS radical decolorization assay. The procedure followed the reported protocol with minor modifications. ABTS (2,2ʹ-azino-bis-(3-ethylbenzothiazoline-6-sulfonic acid) diammonium salt) was purchased from TCI (Tokyo, Japan), while potassium persulfate (di-potassium peroxodisulfate), Trolox (6-hydroxy-2,5,7,8-tetramethylchroman-2-carboxylic acid), catechol, and DMSO were received from Sigma-Aldrich Chemical Co. (St. Louis, MO, USA). The ethanol was HPLC grade. Aqueous solutions were prepared using deionized water.
Trolox was used as the standard reference compound. Catechol was used as the positive control. All test and reference compounds were dissolved in DMSO. The final concentration of DMSO in the reaction mixture was 4% (v/v).
The solution of ABTS radical cation (ABTS^•+) was produced by mixing a 7 mM ABTS stock solution with a 2.45 mM aqueous solution of potassium persulfate in equal quantities and allowing them to react for 12–16 h at room temperature in the dark. At the time of activity determination, the ABTS^•+ solution was diluted with ethanol to adjust it to an absorbance value of about 0.80 ± 0.05 at 734 nm. A fresh working solution of ABTS^•+ was prepared for each assay.
The radical scavenging capacity of the compounds was analyzed by mixing 10 μL of test compound with 240 μL of ABTS^•+ working solution. The reduction in absorbance was measured spectrophotometrically at 734 nm using an xMark microplate UV/VIS spectrophotometer (Bio-Rad, Hercules, CA, USA). The reaction was monitored for an hour at 10 min intervals. Data were given for 1 h of incubation of compounds with ABTS^•+. EtOH blanks were run in each assay. The results were obtained from three replicates of each sample and three independent experiments.
The antioxidant capacity as a Trolox equivalent (TEAC values) was determined as the ratio between the slopes obtained from the linear correlation of concentrations of test compounds and Trolox with absorbance of ABTS radical.

tubulin = target: T1, tubulin (Sus scrofa, UniProt P02550+P02554); experiment: Tubulin polymerization (microtubule assembly); assay type: biochemical
T1 construct: purchased Cytoskeleton, Inc. HTS-Tubulin polymerization assay kit
T1 sequence (P02550 whole entry): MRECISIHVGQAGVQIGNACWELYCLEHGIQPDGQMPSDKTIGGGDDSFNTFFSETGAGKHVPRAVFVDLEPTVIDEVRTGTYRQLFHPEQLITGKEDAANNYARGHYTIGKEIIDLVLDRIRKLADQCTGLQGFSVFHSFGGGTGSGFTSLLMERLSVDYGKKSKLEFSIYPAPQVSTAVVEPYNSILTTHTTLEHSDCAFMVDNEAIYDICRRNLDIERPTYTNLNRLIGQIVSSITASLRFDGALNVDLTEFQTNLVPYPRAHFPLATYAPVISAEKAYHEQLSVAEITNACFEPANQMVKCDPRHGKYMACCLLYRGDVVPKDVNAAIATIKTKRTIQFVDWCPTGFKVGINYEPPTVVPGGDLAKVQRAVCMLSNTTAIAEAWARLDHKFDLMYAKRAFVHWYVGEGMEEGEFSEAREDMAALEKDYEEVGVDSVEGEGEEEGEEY
T1 sequence (P02554 whole entry): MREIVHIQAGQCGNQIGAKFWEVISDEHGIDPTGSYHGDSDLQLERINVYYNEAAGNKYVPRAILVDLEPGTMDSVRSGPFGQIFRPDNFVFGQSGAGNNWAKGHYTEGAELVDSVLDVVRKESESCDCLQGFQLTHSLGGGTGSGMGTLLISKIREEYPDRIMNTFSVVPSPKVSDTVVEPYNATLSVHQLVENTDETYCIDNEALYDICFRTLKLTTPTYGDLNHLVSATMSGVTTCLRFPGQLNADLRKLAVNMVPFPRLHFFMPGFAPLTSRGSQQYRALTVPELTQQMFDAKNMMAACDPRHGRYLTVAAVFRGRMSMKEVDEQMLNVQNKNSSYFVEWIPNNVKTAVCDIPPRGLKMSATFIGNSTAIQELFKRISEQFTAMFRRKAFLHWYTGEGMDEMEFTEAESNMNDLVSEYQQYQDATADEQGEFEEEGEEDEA
Description: The assembly of tubulin into microtubules was carried out using pure tubulin from an HTS-Tubulin polymerization assay kit (Cytoskeleton, Inc., Denver, CO, USA). A standard polymerization reaction used 100 μL of 4 mg/mL tubulin in 80 mM PIPES (pH 6.9), 0.5 mM EGTA, 2 mM MgCl2, and 1 mM GTP. Polymerization was monitored by recording the change in absorbance on a Wallac Victor 3 1420 Multilabel Counter (Perkin Elmer, Turku, Finland) at λ = 3 55 nm. Electron microscopic monitoring was carried out with a Carl Zeiss Libra 120 electron microscope (Carl Zeiss Meditec AG, Jena, Germany) at 120 kV using negative contrasting.

Compound | ΔΨm, CI (g/m) [1] | ΔΨm, CII (s/r) [1] | CES inhibition at 20 µM (porcine liver CES) | IC50 [2] | ABTS Scavenging Activity, TEAC Value [2] | Effect on calcium-induced mitochondrial depolarization at 30 μM ([1]; 30 μM, 12.5 µM CaCl2) | Structure of microtubules formed (electron microscopy) (tubulin) | Tubulin polymerization rate, % of control at 100 µM (tubulin; 100 µM compound, means ± SEM (n = 6), read-out: Tubulin polymerization rate (dA355/dt), % Control)
CN(C)c1ccc2c(c1)Sc1cc(N(C)C)ccc1N2C(=O)CCn1c2c(c3ccccc31)CCC2 [Compound 4a] | 8 ± 1% | 58 ± 1% | 19.4 ± 1.8% | 21 ± 1.4 µM | 0.99 ± 0.08 | – | – | –
CN(C)c1ccc2c(c1)Sc1cc(N(C)C)ccc1N2C(=O)CCn1c2c(c3ccccc31)CCCC2 [Compound 4b] | 20 ± 1% | 42 ± 2% | 22.6 ± 2.1% | 24.3 ± 1.5 µM | 0.90 ± 0.04 | – | – | –
Cc1ccc2c(c1)c1c(n2CCC(=O)N2c3ccc(N(C)C)cc3Sc3cc(N(C)C)ccc32)CCCC1 [Compound 4c] | 29 ± 1% | 50 ± 3% | 14.9 ± 1.3% | 17.6 ± 1.8 µM | 1.13 ± 0.09 | – | – | –
COc1ccc2c(c1)c1c(n2CCC(=O)N2c3ccc(N(C)C)cc3Sc3cc(N(C)C)ccc32)CCCC1 [Compound 4d] | 30 ± 4% | 53 ± 1% | 17.3 ± 1.5% | 39.3 ± 1.5 µM | 0.75 ± 0.05 | – | – | –
COc1ccc2c(c1)c1c(n2CCC(=O)N2c3ccc(N(C)C)cc3Sc3cc(N(C)C)ccc32)CCC(C)C1 (centres unmarked) [Compound 4e] | 33 ± 1% | 50 ± 1% | 15.0 ± 1.3% | 13.7 ± 0.9 µM | 1.46 and 1.46 ± 0.11 | – | – | –
CN(C)c1ccc2c(c1)Sc1cc(N(C)C)ccc1N2C(=O)CCn1c2c(c3cc(F)ccc31)CCCC2 [Compound 4f] | 27 ± 1% | 47 ± 1% | 6.6 ± 0.7% | 27.2 ± 1.6 µM | 0.85 ± 0.04 | – | – | –
CN(C)c1ccc2c(c1)Sc1cc(N(C)C)ccc1N2C(=O)CCn1c2c(c3cc(OC(F)(F)F)ccc31)CCCC2 [Compound 4h] | 15 ± 2% | 25 ± 1% | 3.1 ± 0.5% | 17.8 ± 1.4 µM | 1.10 ± 0.10 | considerably decrease | straight, long microtubules with a normal structure | 179 ± 27%
